Literature values in patent publication US10300101B2, “Methods and compositions for enhancing or maintaining fertility” (Quality IP Holdings, LLC, priority 2012, dated 2019).

Legend:
hGH levels [1] = test system: hGH levels
hGH levels [2] = conditions: subcutaneous injection of 0.06 IU in hGH deficient subjects

For `N=C(N)NCCC[C@H](N)C(=O)O` [arginine], the “elevation of serum hGH levels” value (hGH levels [1]; 30 g intravenous, in males) is given as 8.6 fold and the “increase in hGH levels” value (hGH levels [1]; intravenous infusion of 183 mg/kg body weight in females) is given as greater than 20 fold.
For “hGH: human growth hormone given by subcutaneous injection to hGH deficient subjects”, the “mean levels of hGH reached” value (hGH levels [2]) is listed as 0.4 ng/mL.
